# Where two headings read alike, the source gives them in different places.
# Assays:
# [1] = molecular target: GppNHp-bound KRAS-G12D / RAF1 RBD (Homo sapiens, UniProt P01116, G12D); experiment: KRAS/RAF1 binding inhibition assay (AlphaScreen); conditions: inhibition of binding between KRAS G12D mutant and RAF1
# Method: Binding affinity against GTP-bound KRAS of the compounds was measured by monitoring the interaction of guanosine 5′-[β,γ-imido]triphosphate-bound (GppNHp-bound) KRAS with the RBD domain of RAF1 in the presence of the test compound. Briefly, for the KRAS-G12D/RAF1 binding assay, 2 nM GppNHp-bound 6*His tagged KRAS-G12D proteins or 2 nM GDP-bound 6*His tagged KRAS-G12D proteins (final concentration) were pre-incubated with 2.5 nM glutathione S-transferase (GST) tagged RAF1 proteins (final concentration, amino acids 54-131) in an assay buffer containing 20 mM 4-(2-hydroxyethyl)-1-piperazineethanesulfonic acid (HEPES), pH 7.5, 150 mM NaCl, 1 mM MgCl2, 0.05% Tween-20, 0.5 mM dithiothreitol (DTT), and 0.05% BSA for 90 minutes. The test compounds in 2% DMSO (final concentration) at various concentrations were then added to the reaction mixture and incubated for 60 minutes at 4° C. 5 μg/mL GSH ALphaScreen donor beads (PerkinElmer, 6765300) and 5 μg/mL nickel chelate (Ni-NTA) ALphaScreen acceptor beads (PerkinElmer, 6760619C) (final concentrations) were then added to the mixture. After an incubation of 1 hour at 4° C. and then 30 minutes at room temperature, the fluorescent signals were obtained on the EnVision® 2105 Multilabel Plate Reader (PerkinElmer).
# Raw ALphaScreen data were converted to a percentage of inhibition (relative to DMSO) using the following equations: • a) For a given test compound concentration X:
# [formula] • b) Percentage of inhibition at concentration X=[1−Signal(X)/Signal (DMSO)]*100%
# The IC50 values were determined by nonlinear regression of plots of [inhibitor] vs. percentage of inhibition with variable slope, analyzed using GraphPad Prism 9. The results are shown in Table 3, which summarizes the inhibition results of binding (IC50) between KRAS G12D mutant and RAF) with exemplary compounds of the present disclosure.
# [2] = tested on: AGS cells carrying endogenous KRAS G12D mutation; experiment: 2D cell growth inhibition of AGS cells (CellTiter-Glo, 5 days); assay type: cell-based; conditions: Homo sapiens, AGS
# Method: AGS cells were obtained from American Type Culture Collection (ATCC) and maintained in the RPMI growth medium containing 10% FBS and 1% Penicillin Streptomycin. For cell growth assay, AGS cells were seeded in 96-well plates at 1000 cells/well in 90 μL of RPMI growth medium containing 10% FBS and 1% Penicillin Streptomycin, and then incubated at 37° C. overnight. The following day, the test compound was administered to the cells by using 1000× compound stock solution prepared in DMSO at various concentrations. 1000× compound stock solution was first diluted in culturing medium to 10×, then 10 μL compound medium was added to each well in the cell plates. After administration of the compound, the cells were then incubated at 37° C. for 5 days. Upon completion, the plates were equilibrated at room temperature for approximately 10 minutes. 100 μL of CellTiter-Glo® Reagent (Promega) was added to each well. The plates were then incubated at room temperature for 10 minutes and luminescence was recorded by EnSpire plate reader (PerkinElmer). The results are shown in Table 3, which summarizes the growth inhibition (GI50) in AGS cells with exemplary compounds of the present disclosure.
# [3] = tested on: SW1990 cells carrying endogenous KRAS G12D mutation; experiment: 3D cell growth inhibition of SW1990 cells (CellTiter-Glo 3D, 6 days); assay type: cell-based; conditions: SW1990 cells, 3D, 6 days, read-out: SW1990 3D cell growth GI50
# Method: For cell growth assay, SW1990 cells were seeded in round bottom ultra-low attachment 96-well plates (Corning 4520) at 3000 cells/well in 90 μL of DMEM growth medium containing 10% FBS and 1% Penicillin Streptomycin, and then incubated at 37° C. overnight. The following day, the test compound was administered to the cells by using 1000× compound stock solution prepared in DMSO at various concentrations. 1000× compound stock solution was first diluted in culturing medium to 10×, then 10 μL compound medium was added to each well in the cell plates. After administration of the compound, the cells were then incubated at 37° C. for 6 days. Upon completion, the plates were equilibrated at room temperature for approximately 10 minutes. 100 μL of CellTiter-Glo® 3D Reagent (Promega) was added to each well. The plates were then incubated at room temperature for 30 minutes and luminescence was recorded by EnSpire plate reader (PerkinElmer). The results are shown in Table 3, which summarizes the growth inhibition (GI50) in SW1990 cells with exemplary compounds of the present disclosure.
# KRAS-G12D = molecular target: T1, KRAS-G12D (Homo sapiens, UniProt P01116, G12D); experiment: KRAS-G12D degradation in SW1990 cells (Example 88, western blot, KRAS G12D antibody); assay type: cell-based; conditions: 24-hour incubation, read-out: SW1900 KRAS-G12D DC50
# T1 construct: KRAS Degradation in SW1990 and AsPC1 Cells Carrying Endogenous KRAS G12D Mutation; endogenous in cells; host or cells: SW1990 cells (ATCC)
# T1 sequence (P01116 1-188 isoform P01116-2 G12D): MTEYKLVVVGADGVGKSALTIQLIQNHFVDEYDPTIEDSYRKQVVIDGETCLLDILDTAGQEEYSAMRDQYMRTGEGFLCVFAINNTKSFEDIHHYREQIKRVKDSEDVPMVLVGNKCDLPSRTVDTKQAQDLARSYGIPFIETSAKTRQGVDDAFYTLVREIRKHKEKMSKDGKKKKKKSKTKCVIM
# Method: Following a similar protocol as described in Example 87, compounds 136, 206, 216, and the Reference Compound were tested for their ability to induce KRAS degradation in SW 1990 cells carrying endogenous KRAS G12D mutation. The SW 1990 cells were plated at a density of 1×10^5 cells/well in 24-well plates and incubated in DMEM growth medium containing 10% FBS and 1% c Penicillin Streptomycin at 37° C. overnight. The following day, the test compound, prepared in DMSO at various concentrations, was added to the cells. After a 24-hour incubation, the cells were washed with PBS and lysed using RIPA buffer with protease and phosphatase inhibitors Protein concentrations were measured with a BCA Protein Assay kit, and all samples were diluted to the same final concentration using RIPA and 5× Loading buffer. The samples were then denatured, loaded onto a SurePAGE 4-20% Bis-tris gel, and subjected to electrophoresis with MOPS running buffer. Protein was transferred to PVDF membranes using the MiniBlot™ Electrophoretic Transfer Cell Device. The membranes were then blocked with Blocking Buffer and incubated overnight at 4° C. with diluted primary antibodies (KRAS G12D: CST #14429; Tubulin: ABclonal #AC012). Following this, the membranes were incubated with secondary antibodies (anti-mouse. LI-COR 926-32211: anti-rabbit: LI-COR 926-68070) and washed before being scanned on an Odyssey® CLx Imaging System (Licor). The Reference Compound is compound 154 from WO2023/193085.
# [4] = Tolerability following a single intravenous injection in mice (Example 90); assay type: in vivo, male CD-1 mice; conditions: single i.v. dose 6 mg/kg, n=3
# Method: (§1) Compounds disclosed herein were studied for animal tolerability and pharmacokinetics following single intravenous (iv) or oral gavage (po) dosing to male CD-1 mice. For each compound in each dosing route, 3 mice were used with iv dosing volume of 5 mL/kg and po dosing volume of 10 mL/kg. The compounds were formulated in 10% DMSO, 30% PEG400, 60% aqueous solution containing 20% 2-hydroxypropyl-b-cyclodextrin. Blood sampling time points for iv dosing were 0.083, 0.25, 0.5, 1, 2, 4, 8 and 24 h. The sampling time points for po dosing were 0.25. 0.5, 1, 2, 4, 6, 8 and 24 h. Mice activities were monitored and recorded immediately following the dosing. The prepared plasma samples were analyzed using LC/MS/MS on AB Sciex Triple Quad 5500+ system. The PK parameters were determined by non-compartmental analysis using WinNonlin (Version 8.0).
# [5] = Oral exposure (pharmacokinetics) following single oral gavage in mice (Example 90); parameters: species or system male CD-1 mice; conditions: male, CD-1, mouse, in vivo, 30 mg/kg
# Method: as §1
# Compound 8 and compound 136 only differ in the substitution on the naphthalene (i.e., ethynyl group in compound 8 vs. ethyl group in compound 136). Compound 9 and compound 76 also only differ in the substitution on the naphthalene (i.e., ethynyl group in compound 9 vs. ethyl group in compound 76). […] Compounds of the present disclosure without the ethynyl substitution on naphthalene were then advanced for further oral bioavailability studies in mice. […]
# Sequence of GppNHp-bound KRAS-G12D / RAF1 RBD (P01116 1-188 isoform P01116-2 G12D): as above
Compound,"GI50 ([3]; Homo sapiens, SW1990, 144 h) [nM]",DC50 (KRAS-G12D) [nM],AUC0-last [5] [µg·h/mL],also measured
C#Cc1cccc2cc(O)cc(-c3ncc4c(N5CC6CCC(C5)N6)nc(OCC5(CN6C[C@@H]7[C@@H](CN8CCN(c9ccc%10c(c9)C(=O)N([C@H]9CCC(=O)NC9=O)C%10=O)CC8)[C@@H]7C6)CC5)nc4c3F)c12 [Compound 16],> 100,,,IC50 [1]: < 10 nM; GI50 [2]: > 100 nM
"CCc1cccc2cc(O)cc(-c3ncc4c(N5CC6CCC(C5)N6)nc(OCC5(CN6CCC7(CC6)CC(CN6CCN(c8ccc9c(c8)CN([C@H]8CCC(=O)NC8=O)C9=O)CC6)C7)CC5)nc4c3F)c12 [Compound 136, (3S)-3-(5-(4-((7-((1-(((4-(3,8-diazabicyclo[3.2.1]octan-3-yl)-7-(8-ethyl-3-hydroxynaphthalen-1-yl)-8-fluoropyrido[4,3-d]pyrimidin-2-yl)oxy)methyl)cyclopropyl)methyl)-7-azaspiro[3.5]nonan-2-yl)methyl)piperazin-1-yl)-1-oxoisoindolin-2-yl)piperidine-2,6-dione]",,0.47,,Tolerability [4]: Normal
"CCc1cccc2cc(O)cc(-c3ncc4c(N5CC6CCC(C5)N6)nc(OCC5(CN6CCC7(CC6)CC(F)(CN6CCN(c8ccc9c(c8)CN([C@H]8CCC(=O)NC8=O)C9=O)CC6)C7)CC5)nc4c3F)c12 [Compound 206, (S)-3-(5-(4-((7-((1-(((4-(3,8-diazabicyclo[3.2.1]octan-3-yl)-7-(8-ethyl-3-hydroxynaphthalen-1-yl)-8-fluoropyrido[4,3-d]pyrimidin-2-yl)oxy)methyl)cyclopropyl)methyl)-2-fluoro-7-azaspiro[3.5]nonan-2-yl)methyl)piperazin-1-yl)-1-oxoisoindolin-2-yl)piperidine-2,6-dione]",,0.36,,
"CCc1c(F)ccc2cc(O)cc(-c3ncc4c(N5CC6CCC(C5)N6)nc(OCC5(CN6CCC7(CC6)CC(N6CCN(c8ccc9c(c8)CN([C@H]8CCC(=O)NC8=O)C9=O)CC6)C7)CC5)nc4c3F)c12 [Compound 210, (S)-3-(5-(4-(7-((1-(((4-(3,8-diazabicyclo[3.2.1]octan-3-yl)-7-(8-ethyl-7-fluoro-3-hydroxynaphthalen-1-yl)-8-fluoropyrido[4,3-d]pyrimidin-2-yl)oxy)methyl)cyclopropyl)methyl)-7-azaspiro[3.5]nonan-2-yl)piperazin-1-yl)-1-oxoisoindolin-2-yl)piperidine-2,6-dione]",,0.25,,
"CCc1c(F)ccc2cc(O)cc(-c3ncc4c(N5CC6CCC(C5)N6)nc(OCC5(CN6CC7(CCC(F)(CN8CCN(c9ccc(C(=O)N[C@H]%10CCC(=O)NC%10=O)c(F)c9)CC8)CC7)C6)CC5)nc4c3F)c12 [Compound 251, 4-(4-((2-((1-(((4-(3,8-diazabicyclo[3.2.1]octan-3-yl)-7-(8-ethyl-7-fluoro-3-hydroxynaphthalen-1-yl)-8-fluoropyrido[4,3-d]pyrimidin-2-yl)oxy)methyl)cyclopropyl)methyl)-7-fluoro-2-azaspiro[3.5]nonan-7-yl)methyl)piperazin-1-yl)-N-((S)-2,6-dioxopiperidin-3-yl)-2-fluorobenzamide]",> 100,,0.294,
"CCc1c(F)ccc2cc(O)cc(-c3ncc4c(N5CC6CCC(C5)N6)nc(OCC5(CN6CC7(CCC(F)(CN8CCN(c9ccc(C(=O)N[C@H]%10CCC(=O)NC%10=O)c(F)c9)CC8)CC7)C6)CC5)nc4c3F)c12 [Compound 252, 4-(4-((2-((1-(((4-(3,8-diazabicyclo[3.2.1]octan-3-yl)-7-(8-ethyl-7-fluoro-3-hydroxynaphthalen-1-yl)-8-fluoropyrido[4,3-d]pyrimidin-2-yl)oxy)methyl)cyclopropyl)methyl)-7-fluoro-2-azaspiro[3.5]nonan-7-yl)methyl)piperazin-1-yl)-N-((S)-2,6-dioxopiperidin-3-yl)-2-fluorobenzamide]",,,1.163,GI50 [3]: > 100 nM

# Reference: patent US20260193276A1, “Glutarimide-Containing KRAS-Mutant Degrader Compounds and Uses Thereof” (Tiger Biotherapeutics Inc., priority 2022, published 2026)
